In patent publication US6472396B1, “Barbituric acid derivatives, processes for their production and pharmaceutical agents containing these compounds” (Roche Diagnostics GmbH, priority 1995, dated 2002) one finds IC50 data, which are given here for eight molecules.

The target of this assay is T1, MMP-8 (Homo sapiens, UniProt P22894).
T1 construct: catalytic domain (Met80-Gly242) of human neutrophil collagenase; made in house
In words: Inhibition of MMPs (HNC catalytic domain), fluorogenic heptapeptide substrate DNP-Pro-Leu-Gly-Leu-Trp-Ala-D-Arg-NH2. The class given is biochemical. The procedure:
In order to determine the inhibition of MMPs, for example HNC, the catalytic domain (isolation and purification see for example Schnierer, S., Kleine, T., Gote, T., Hillemann, A., Knäuper, V., Tschesche, H., Biochem. Biophys. Res. Commun. (1993) 191, 319-326) is incubated with inhibitors having various concentrations. Subsequently, the initial reaction rate in the conversion of a standard substrate is measured in a manner analogous to Grams F. et al., FEBS 335 (1993) 76-80).
The results are evaluated by plotting the reciprocal reaction rate against the concentration of the inhibitor. The inhibition constant (Ki) is obtained as the negative section of the abscissis by the graphical method according to Dixon, M., Biochem. J. (1953) 55, 170-202.
The synthetic collagenase substrate is a heptapeptide which is coupled, at the […], with DNP (dinitrophenol). Said DNP residue quenches by steric hindrance the fluorescence of the adjacent tryptophane of the heptapeptide. After cleavage of a tripeptide which includes the DNP group, the tryptophane fluorescence increases. The proteolytic cleavage of the substrate therefore can be measured by the fluorescence value.
The assay was performed at 25° C. in a freshly prepared 50 mM Tris buffer (pH 8.0) treated with dithiozone to remove traces of heavy metals. 4 mM CaCl2 was added and the buffer saturated wtih argon. Stock solutions of adamalysin II were prepared by centrifugation of the protein from an ammonium sulfate suspension and subsequent dissolution in the assay buffer. Stock solutions of collagenase were diluted with the assay buffer. Enzyme concentrations were determined by uv measurements (ε280=2.8 10^4 M1 cm^−1, ε288: 2.2 10^4 M^−1 cm^−1) and the stock solutions were stored in the cold. This solution was diluted 1:100 to obtain the final 16 nM assay concentration. The fluorogenic substrate DNP-ProLeu-Gly-LeuTrp-Ala-D-Arg-NH2 with a Km of 52 μM was used at a concentration of 21.4 μM; for the Ki determination a 12.8 μM concentration has also been used. Substrate fluorescence was measured at an excitation and emission wavelength of λ=320 and 420 nm, respectively, on a spectrofluorimeter (Perkin Elmer, Model 650-40) equipped with a thermostated cell holder. Substrate hydrolysis was monitored for 10 min. immediately after adding the enzyme. All reactions were performed at least in triplicate. The Ki values—of the inhibitors were calculated from the intersection point of the straight lines obtained by the plots of vo/vi vs. [concentration of inhibitor], whereas IC50 values were calculated from plots of vi/vo [concentration of inhibitor] by non-linear regression with simple robust weighting.
50 mM Tris/HCl pH 7.6 (Tris=Tris-(hydroxymethyl)-aminomethan)
100 mM NaCl/10 mM CaCl 2/5% MeOH (ff necessary)
Enzyme: 8 nM catalytic domain (Met80-Gly242) of human neutrophil collagenase
Substrate: 10 microM DNP-Pro-Leu-Gly-Leu-Trp-Ala-D-Arg-NH2
A solution of the enzyme and inhibitor in assay buffer (25° C.) was prepared. The reaction was started directly by giving the substrate into the solution. The cleavage of the flourogenic substrate was followed by flourescence spectroscopy with an excitation and emision wavelength of 280 and 350 nm, respectively. The IC50 value was calculated as the inhibitor concentration, which is necessary to decrease the velocity of the reaction to the half in comparison to the reaction without inhibitor.

Setting [1] is: MMP-8 (catalytic domain of human neutrophil collagenase), 25° C., read-out: IC-50.

pIC50: −log10 of the molar value. Where two headings read alike, the source gives them in different places.

T1 sequence (P22894 100-262 limits assumed): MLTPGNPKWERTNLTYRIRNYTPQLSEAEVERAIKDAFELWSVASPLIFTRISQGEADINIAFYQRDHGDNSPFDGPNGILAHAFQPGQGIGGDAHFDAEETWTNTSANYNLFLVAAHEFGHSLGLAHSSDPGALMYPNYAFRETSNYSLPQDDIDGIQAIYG

In the case of `O=C1NC(=O)C(c2ccccc2)(N2CCN(c3ccc([N+](=O)[O-])cc3)CC2)C(=O)N1` [example 32.77, 5-[4-(4-Nitro-phenyl)-piperazin-1-yl)-5-phenyl-pyrimidine-2,4,6-trione], the pIC50 is 6.80. In the case of “5-Decyl-5-[N-(2-hydroxyethyl)piperazinyl]barbituric Acid [example 28]”, under setting [1], the pIC50 was 6.49. As for “5-[N-(2-Hydroxyethyl)piperazinyl]-5-(4-hydroxyphenyl)barbituric Acid [example 20]”, the pIC50 under setting [1] was 6.07.

For the molecule `O=C1NC(=O)C(NC(=O)c2cccc3c2C(=O)c2ccccc2-3)(c2ccccc2)C(=O)N1` [example 32.74, 9-Oxo-9H-fluorene-1-carboxylic acid (2,4,6-trioxo-5-phenyl-hexadro-pyrimidin-5-yl)-amide], the pIC50 under setting [1] was 6.05. The same measure, in the same setting: the value for “5-Octyl-5-[N-(2-hydroxyethyl)piperazinyl]barbituric Acid [example 23]” was 6.96; that for `O=C1NC(=O)C(c2ccc(-c3ccccc3)cc2)(N2CCN(c3ccc([N+](=O)[O-])cc3)CC2)C(=O)N1` [example 26, 5-(4′-Biphenyl)-5-[N-(4-nitrophenyl)piperazinyl]barbituric Acid] was 7.82. Take `CCCCCCCCC1(N2CCN(c3ccc([N+](=O)[O-])cc3)CC2)C(=O)NC(=O)NC1=O` [preferred no. 118]: under setting [1], the pIC50 was 7.22. `O=C1NC(=O)C(c2ccccc2)(N(Cc2ccccc2)C(=O)Cc2cccc(Br)c2)C(=O)N1` [preferred no. 120, N-Benzyl-2-(3-bromo-phenyl)-N-(2,4,6-trioxo-5-phenyl-hexahydro-pyrimidin-5-yl)-acetamide] gave a pIC50 of 6.82.
